Assay results reported in ChEMBL document CHEMBL1615345, “Evaluation of a published in silico model and construction of a novel Bayesian model for predicting phospholipidosis inducing potential” (J Chem Inf Model, 2007).

What was measured:
[1] = system: Phospholipidosis; test: Phospholipidosis-positive literature compound observed in human; assay type: ADME
[2] = system: Phospholipidosis; conditions: rat;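 further: classification drawn from published literature: compounds reported as causing phospholipidosis in rat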
[3] = system: Phospholipidosis; test: Phospholipidosis-positive literature compound observed in mouse; assay type: ADME, organism-based; conditions: in vivo
[4] = system: Phospholipidosis; test: Phospholipidosis-positive literature compound observed in rabbit; assay type: ADME, Oryctolagus cuniculus
[5] = system: Phospholipidosis; test: Phospholipidosis-positive literature compound observed in dog; assay type: ADME, Canis lupus familiaris
[6] = system: Phospholipidosis; test: Phospholipidosis-positive literature compound observed in Rhesus monkey; assay type: ADME, Macaca mulatta
[7] = system: Phospholipidosis; test: Phospholipidosis-positive literature compound observed in monkey; assay type: ADME; conditions: cercopithecidae
[8] = system: Phospholipidosis; test: Phospholipidosis-positive literature compound observed in guinea pig; assay type: ADME, Cavia porcellus
[9] = system: Phospholipidosis; test: Phospholipidosis-positive literature compound observed in hamster; conditions: cricetinae

In the case of `NC[C@H]1O[C@H](O[C@H]2[C@H](O)[C@@H](O[C@H]3O[C@H](CO)[C@@H](O)[C@H](N)[C@H]3O)[C@H](N)C[C@@H]2N)[C@H](N)C[C@@H]1O` [TOBRAMYCIN], the Phospholipidosis [1] is reported as “Active” and the Phospholipidosis [2] is reported as “Active”.

For `N=C(N)c1ccc(/C=C/c2ccc(C(=N)N)cc2)cc1` [STILBAMIDINE], the Phospholipidosis [1] was “Active”.

For `CC(=O)N1CCN(c2ccc(OCC3COC(Cn4ccnc4)(c4ccc(Cl)cc4Cl)O3)cc2)CC1` (stereo unspecified) [KETOCONAZOLE], the Phospholipidosis [3] was “Active”.

For `CCCCc1oc2ccccc2c1C(=O)c1cc(I)c(OCCN(CC)CC)c(I)c1` [AMIODARONE], the Phospholipidosis [1] was “Active” and the Phospholipidosis [2] was “Active”.

For `CN(C)CCCN(C)[C@H]1CC[C@H]2[C@@H]3CC=C4C[C@@H](O)CC[C@]4(C)[C@H]3CC[C@]12C` [AZACOSTEROL], the Phospholipidosis [3] was “Active”.

For `CCN(CC)Cc1cc(Nc2ccnc3cc(Cl)ccc23)ccc1O.Cl`, the Phospholipidosis [1] was “Active”.

For `Clc1ccccc1CNC[C@H]1CC[C@H](CNCc2ccccc2Cl)CC1`, the Phospholipidosis [3] was “Active”, the Phospholipidosis [4] was “Active” and the Phospholipidosis [2] was “Active”.

`CCN(CC)CCCC(C)Nc1ccnc2cc(Cl)ccc12` (stereo unspecified) [CHLOROQUINE] was tested, and the Phospholipidosis [1] was “Active”, the Phospholipidosis [3] was “Active” and the Phospholipidosis [5] was “Active”. The Phospholipidosis [6] was “Active” and the Phospholipidosis [2] was “Active”.

`C1CCC(C(CC2CCCCN2)C2CCCCC2)CC1` (stereo unspecified) [PERHEXILINE] was tested, and the Phospholipidosis [1] was “Active”, the Phospholipidosis [3] was “Active” and the Phospholipidosis [2] was “Active”.

`NC[C@H]1Cc2ccc(F)cc2[C@@H](c2ccccc2)O1` was tested, and the Phospholipidosis [2] was “Active”.

With `CNCCCC12CCC(c3ccccc31)c1ccccc12` [MAPROTILINE] the Phospholipidosis [2] was “Active”.

`C[n+]1ccc(-c2cc[n+](C)cc2)cc1` was tested, and the Phospholipidosis [3] was “Active”.

In the case of `CN1CCN(C2=Nc3cc(Cl)ccc3N(C)n3cccc32)CC1`, the Phospholipidosis [2] is reported as “Active”.

In the case of `CN(C)CCCN1c2ccccc2Sc2ccc(Cl)cc21` [CHLORPROMAZINE], the Phospholipidosis [5] is reported as “Active” and the Phospholipidosis [2] is reported as “Active”.

With `CN(C)C/C=C(/c1ccc(Br)cc1)c1cccnc1` [ZIMELDINE] the Phospholipidosis [5] was “Active” and the Phospholipidosis [2] was “Active”.

With `CCN(CC)CCCC(C)Nc1c2ccc(Cl)cc2nc2ccc(OC)cc12` (stereo unspecified) [QUINACRINE] the Phospholipidosis [2] was “Active”.

In the case of `CC(C)N(CCC(CCN1CCCCC1)(C(N)=O)c1ccccc1Cl)C(C)C` (stereo unspecified) [DISOBUTAMIDE], the Phospholipidosis [5] is reported as “Active”, the Phospholipidosis [7] is reported as “Active” and the Phospholipidosis [2] is reported as “Active”.

In the case of `CCN(CC)CCOc1ccc2c(c1)C(=O)c1cc(OCCN(CC)CC)ccc1-2` [TILORONE], the Phospholipidosis [1] is reported as “Active” and the Phospholipidosis [2] is reported as “Active”.

`FC(F)(F)c1ccc(-c2ccc(OCCN3CCCC3)cc2)cc1` [BOXIDINE] was tested, and the Phospholipidosis [2] was “Active”.

For `CCNC(C)Cc1cccc(C(F)(F)F)c1` (stereo unspecified) [FENFLURAMINE], the Phospholipidosis [5] was “Active”, the Phospholipidosis [8] was “Active” and the Phospholipidosis [2] was “Active”.

In the case of `CN(C)CCC=C1c2ccccc2C=Cc2c(Cl)cccc21`, the Phospholipidosis [2] is reported as “Active”.

In the case of `CN(C)CCCC1(c2ccc(F)cc2)OCc2cc(C#N)ccc21` (stereo unspecified) [CITALOPRAM], the Phospholipidosis [2] is reported as “Active”.

For GENTAMICIN, the Phospholipidosis [1] was “Active”, the Phospholipidosis [5] was “Active” and the Phospholipidosis [2] was “Active”.

In the case of `CN(C)CCCN1c2ccccc2CCc2ccccc21` [IMIPRAMINE], the Phospholipidosis [2] is reported as “Active”.

With `CCOc1ccc(NC(C)=O)cc1` [PHENACETIN] the Phospholipidosis [2] was “Active”.

In the case of `Cc1cccc(CN2CCN(C(c3ccccc3)c3ccc(Cl)cc3)CC2)c1` (stereo unspecified) [MECLIZINE], the Phospholipidosis [2] is reported as “Active”.

In the case of `CCC(c1ccc(OCCN(CC)CC)cc1)C(CC)c1ccc(OCCN(CC)CC)cc1` (stereo unspecified) [CORALGIL], the Phospholipidosis [1] is reported as “Active”, the Phospholipidosis [3] is reported as “Active” and the Phospholipidosis [5] is reported as “Active”. The Phospholipidosis [4] was “Active”, the Phospholipidosis [9] was “Active” and the Phospholipidosis [2] was “Active”.

`CCN(CC)CCOc1ccc(C(O)(Cc2ccc(Cl)cc2)c2ccc(C)cc2)cc1` (stereo unspecified) [TRIPARANOL] was tested, and the Phospholipidosis [3] was “Active”, the Phospholipidosis [9] was “Active” and the Phospholipidosis [2] was “Active”.

In the case of `NCCc1cc(O)c(O)cc1O` [OXIDOPAMINE], the Phospholipidosis [2] is reported as “Active”.

With `CCC[C@@H]1C[C@@H](C(=O)N[C@@H]([C@H]2O[C@H](SC)[C@H](O)[C@@H](O)[C@H]2O)[C@H](C)Cl)N(C)C1` [CLINDAMYCIN] the Phospholipidosis [5] was “Active” and the Phospholipidosis [2] was “Active”.

In the case of `CC[C@H]1OC(=O)[C@H](C)[C@@H](O[C@H]2C[C@@](C)(OC)[C@@H](O)[C@H](C)O2)[C@H](C)[C@@H](O[C@@H]2O[C@H](C)C[C@H](N(C)C)[C@H]2O)[C@](C)(O)C[C@@H](C)C(=O)[C@H](C)[C@@H](O)[C@]1(C)O` [ERYTHROMYCIN], the Phospholipidosis [5] is reported as “Active” and the Phospholipidosis [2] is reported as “Active”.

With `OCCOCCN1CCN(C(c2ccccc2)c2ccc(Cl)cc2)CC1` (stereo unspecified) [HYDROXYZINE] the Phospholipidosis [2] was “Active”.

With `CN(C)CCCC1c2ccccc2Nc2ccc(Cl)cc21` (stereo unspecified) [CLOMACRAN] the Phospholipidosis [2] was “Active”.

`CN1CCN(C(c2ccccc2)c2ccccc2)CC1` [CYCLIZINE] was tested, and the Phospholipidosis [2] was “Active”.

`CC(C)(N)Cc1ccc(Cl)cc1` [CHLORPHENTERMINE] was tested, and the Phospholipidosis [3] was “Active”, the Phospholipidosis [5] was “Active” and the Phospholipidosis [4] was “Active”. For the same compound, the Phospholipidosis [2] was “Active”.
